For series [1], the target named is T1, ERβ (Homo sapiens, UniProt Q92731). Briefly: ERβ coactivator response. It counts as biochemical. Further details: concentration or dose not given beside the values.
Target sequence in this assay (Q92731 whole entry): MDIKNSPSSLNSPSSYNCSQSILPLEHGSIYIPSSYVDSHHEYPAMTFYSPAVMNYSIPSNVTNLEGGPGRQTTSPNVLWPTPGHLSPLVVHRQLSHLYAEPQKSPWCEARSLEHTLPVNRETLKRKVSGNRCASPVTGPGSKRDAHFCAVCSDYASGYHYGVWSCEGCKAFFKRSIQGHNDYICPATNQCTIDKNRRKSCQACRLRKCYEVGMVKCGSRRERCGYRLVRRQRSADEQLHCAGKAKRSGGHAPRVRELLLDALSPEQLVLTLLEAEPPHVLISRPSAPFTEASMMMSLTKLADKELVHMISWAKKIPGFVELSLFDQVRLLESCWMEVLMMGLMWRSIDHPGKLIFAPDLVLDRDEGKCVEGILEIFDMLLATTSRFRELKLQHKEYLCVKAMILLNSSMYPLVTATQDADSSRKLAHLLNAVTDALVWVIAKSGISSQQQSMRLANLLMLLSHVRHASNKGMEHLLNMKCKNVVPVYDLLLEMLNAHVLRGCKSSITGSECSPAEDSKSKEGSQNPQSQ
In series [2] the target is T1, ERβ. Briefly: Estrogen ERβ competitive radioligand binding with [3H]estradiol. On the set-up: made in house; host or cells: insect Sf9 cells. The protocol: IC50 values were determined by non-linear least squares regression analysis. […] The Hill coefficient (nH) defines the slope of the competitive binding curve and was determined using MathIQ™ (ID Business Solutions Ltd., UK).
Estrogen ERβ • Source: Human recombinant insect Sf9 cells
Target sequence in this assay (Q92731 264-498 limits assumed): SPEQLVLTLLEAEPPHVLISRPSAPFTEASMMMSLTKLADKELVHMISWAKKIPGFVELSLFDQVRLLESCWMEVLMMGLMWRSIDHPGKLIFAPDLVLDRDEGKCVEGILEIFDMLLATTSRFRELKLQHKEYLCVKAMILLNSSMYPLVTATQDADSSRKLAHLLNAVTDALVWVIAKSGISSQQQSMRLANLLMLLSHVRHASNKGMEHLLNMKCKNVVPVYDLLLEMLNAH

Series [3] is described as follows: Bone calcium in female pigs after 180 days daily oral dosing. The format is in vivo. The protocol: Active agents or placebo were administered after heat (estrus) in the luteal phase. […] All treatment groups received daily oral administration of the appropriate capsule(s) for 180 days. Daily general health observations and weekly body weight measurements were conducted for all groups. Following the 6 month administration period, calcium (parts per million (ppm) dry weight (dw)) was determined in rib and femur bone samples from pigs in each treatment group: […]

Series [4] in a line: Co-administration of Proellex and Androxal in cycling female baboons, 180 days daily oral. The conditions noted are these: daily oral 180 days, Androxal 25 mg. The format is in vivo. The procedure:
All treatment groups received daily oral administration of the appropriate capsule(s) for 180 days. Daily oral dosing was started in the luteal phase. […] Daily observations of estrus (heat) were conducted for all groups.

Series [5] has as its target T1, ERβ. The conditions noted are these: reference compound, Estrogen ERβ; cited from earlier work.
Target sequence in this assay (Q92731 264-498 limits assumed): as above
The mark [6] stands for this setting: third of three separate radioligand binding studies, read-out: Receptor Binding ERβ IC50.

The term IC50 denotes the concentration at which inhibition is half-maximal. One may read the Ki as the equilibrium dissociation constant of an inhibitor or competing ligand from its target.

Where two headings read alike, the source gives them in different places.

Take `CCNCCOc1ccc(/C(=C(/Cl)c2ccccc2)c2ccccc2)cc1` [N-Desethyl enclomiphene, (E)-desethyl Clomiphene]: the “ERβ Coactivator Response Ant (antagonist)” value (from here on “ERβ Coactivator Response Ant”) at ERβ [1] (second of two separate studies) amounted to 74%. For the same compound, on ERβ [2] (setting [6]), the concentration for half-maximal inhibition (IC50) came out at 1.13 nM.

`NCCOc1ccc(/C(=C(/Cl)c2ccccc2)c2ccccc2)cc1` [Di-de-ethyl-enclomiphene, (E)-di-desethyl Clomiphene]: on ERβ [1] (first of two separate studies), the “ERβ Coactivator Response Ant” value is recorded as 87%.

For the compound `CCNCCOc1ccc(/C(=C(/Cl)c2ccccc2)c2ccc(O)cc2)cc1` [4-OH-N-Desethyl enclomiphene, (E)-4-OH-desethyl Clomiphene], on ERβ [1] (second of two separate studies), the “ERβ Coactivator Response Ant” value is reported as 104%. Besides, the IC50 on ERβ [2] (setting [6]) came out at 0.45 nM.

Consider `COCC(=O)[C@@]1(OC(C)=O)CC[C@H]2[C@@H]3CCC4=CC(=O)CCC4=C3[C@@H](c3ccc(N(C)C)cc3)C[C@@]21C` [Proellex, 21-methoxy-17α-acetoxy-11β-(4 N, N-dimethylaminophenyl)-19-norpregna-4,9-diene-3,20-dione], for which the “effect on calcium content of bone” value in series [3] (pig, in vivo, po) is reported as “did not affect the calcium content of bone”. In series [4] (Proellex 12 mg), the “cycling of vaginal bleeding” value is “stopped”, the endometrial thickness entry is on record as “increase in endometrial thickness” and the “swelling (turgesence) of the tissue around the tail under the control of estrogen” value is “not proellex alone inhibited the swelling”.

For `CCN(CC)CCOc1ccc(/C(=C(/Cl)c2ccccc2)c2ccccc2)cc1` [Enclomiphene, trans-clomiphene], the “ERβ Coactivator Response Ant” value on ERβ [1] (first of two separate studies) worked out at 65%. Besides, the “effect on calcium content of bone” value in series [3] (female pigs, daily oral 180 days) is on record as “did not affect the calcium content of bone”. Also, in series [3] (rib and femur bone samples, female pigs n = 3, daily oral 180 days, Proellex 12 mg, Androxal 25 mg), the “Ca (ppm dw), Mean” value is given as 139300.00 ppm dw. Further, the cycling entry in series [4] is listed as “prevented cycling”. Further, in series [4] (Proellex 12 mg), the “cycling of vaginal bleeding” value was “stopped” and the “swelling (turgesence) of the tissue around the tail under the control of estrogen” value is on record as “inhibited the swelling”.

As to `CC/C(=C(/CC)c1ccc(O)cc1)c1ccc(O)cc1` [Diethylstilbestrol], the “Historical nH” value at ERβ [5] was 1.20.

Turning to `CC[N+]([O-])(CC)CCOc1ccc(/C(=C(/Cl)c2ccccc2)c2ccccc2)cc1` [Enclomiphene-NO, (E)-Clomiphene-NO], the “ERβ Coactivator Response Ant” value on ERβ [1] (first of two separate studies) is given as 95%.

`CCN(CC)CCOc1ccc(/C(=C(/Cl)c2ccccc2)c2ccc(O)cc2)cc1` [4-OH-enclomiphene, (E)-4-OH-Clomiphene]: the “ERβ Coactivator Response Ant” value on ERβ [1] (first of two separate studies) is 60%. The “nH (Hill coefficient)” value at ERβ [2] (ERβ, hum) is given as 1.56. Further, the “% Inh.” value at ERβ [2] (ERβ, hum, Conc. 0.9 nM) worked out at 67%. This compound also registered a Ki on ERβ [2] (ERβ, hum, Cheng-Prusoff) of 0.12 nM. Further, the IC50 amounted to 0.57 nM on ERβ [2] (ERβ, hum, additional data, read-out: IC50); 0.57 nM at ERβ [2] (first of three separate radioligand binding studies, read-out: Receptor Binding ERβ IC50); 0.41 nM at ERβ [2] (second of three separate radioligand binding studies, read-out: Receptor Binding ERβ IC50). In addition, the “ligand preference ERα versus ERβ” value at ERβ [2] (based on binding and co-activator studies) is “better ligand for ERβ”.
